What was measured:
[1] = test system: T. cruzi intracellular amastigotes in H9c2 cells; test: RoK combination assay with BNZ; format: cell-based, Trypanosoma cruzi; details: 50 μM BNZ
Method: The assay was performed following the same experimental procedure mentioned above in the RoK assay. The infected H9c2 cells were treated with final 10 and 50 μM concentrations of BNZ and DMSO before being dispensed into the plates containing the compounds. For the combination with 50 μM BNZ, two plates were incubated for 4 and 24 hours respectively before being fixed. For the combinations with 10 μM BNZ and with DMSO, four plates for each condition were incubated for 4, 24, 48 and 72 hours before being fixed.

[2] = test system: H9c2 (rat cardiomyocytes); test: RoK assay, number of host cells nuclei (drug-related cytotoxicity, H9c2 output, Cmin_Tox); details: H9c2 host cells
Procedure, shortened: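 Host-cell toxicity is read as DRAQ5-stained nuclei counts from automated confocal imaging of T. cruzi-infected H9c2 cells, tracked across time at each concentration. Cmin_Tox denotes the lowest compound concentration dropping host cell number under 50% of initial cell density.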

[3] = set-up: method as in PMID 25805302; details: cited from earlier work
[4] = test system: TcCYP51; details: cited from earlier work; for CYP51 pIC50: formerly reported
[5] = test system: Trypanosoma cruzi; details: cited from earlier work

SMILES | Cmin_Tox [2] [µM] | CYP51 pIC50 [4] | other results
O=C(Cn1ccnc1[N+](=O)[O-])NCc1ccccc1 [Benznidazole, benznidazole, reference compound] | >50 | < 4 | AM/CELL ([1]; no compound 1, 4 hours): 2.023; AM/CELL ([1]; no compound 1, 24 hours): 1.3207; average time to interruption of treatment [3]: 26.7 days; CYP51 mean ([4]; TcCYP51 enzyme inhibition, mean, figure 1B, ref original boxes paper): 4.3
CC[C@@H]([C@H](C)O)n1ncn(-c2ccc(N3CCN(c4ccc(OC[C@@H]5CO[C@@](Cn6cncn6)(c6ccc(F)cc6F)C5)cc4)CC3)cc2)c1=O [Posaconazole, reference compound] | 42.2 | 7.3 | curative dose in mice [5]: 20 mg/kg/day
CCCN1CCN(Cc2ccc(S(=O)(=O)Nc3cccc(C)c3)cc2)CC1.O=C(O)C(F)(F)F.O=C(O)C(F)(F)F [TCMDC-143550] | >50 | < 4 | 
O=C(CSc1ccc(-c2ccccn2)nn1)Nc1ccc(Cl)cc1 [TCMDC-143552] | >50 | < 4 | 
c1ccc2c(CCOc3nccnc3-c3ccncc3)c[nH]c2c1 [TCMDC-143562] | >50 | 7.2 | 
O=C(Nc1ccc(Br)c(Cl)c1)Nc1ccc2c(c1)OCO2 [TCMDC-143588] | >50 | < 4 | 
COc1cccc(C(=O)[C@H]2C[C@@H]2CN(Cc2cccnc2)Cc2cccnc2)c1 [TCMDC-143593] | >50 | 7.2 | 
Clc1ccc(Sc2cnccc2N2CCOCC2)cc1 [TCMDC-143602] | >50 | 7.5 | 
N#Cc1cc(N2CCCC2=O)ccc1Sc1ccccc1CO [TCMDC-143604] | >50 | 4.7 | 
CCCc1nc2nc(N)nc(N)c2cc1CC [TCMDC-143606] | >50 | < 4 | 
COc1ccccc1-c1c(C)[nH]c2nc(N)nc(C)c12 [TCMDC-143610] | >50 | 4.1 | 
CCCCNc1nccc(-c2c(-c3ccc(F)cc3)nn3c(N4CCOCC4)cccc23)n1 [TCMDC-143617] | >50 | < 4 | 
CN(C)CCOc1ccc(N2CCN(S(=O)(=O)c3ccc(Cl)cc3)CC2)cc1 [TCMDC-143622] | >50 | 4.6 | 
CN(C)Cc1ccc(N2CCC(NS(=O)(=O)c3ccc(Cl)cc3)CC2)cc1 [TCMDC-143623] | 25.3 | < 4 | 
O=c1[nH]ccc2ccc(-c3ccncc3)cc12 [TCMDC-143631] | >50 | 7.8 | 
O=C(O)/C=C\C(=O)O.O=C(c1ccc(OCCCc2cnc[nH]2)cc1)C1CC1 [TCMDC-143632] | >50 | 7.3 | 

— paper PMC8318231, “Rate-of-Kill (RoK) assays to triage large compound sets for Chagas disease drug discovery: Application to GSK Chagas Box” (PLoS Neglected Tropical Diseases, 2021)
